Results from patent US10485550B2, “Ophthalmic drug delivery device and methods of use” (priority 2012, dated 2019).
Where “and” joins values, the source holds several entries; their conditions need not be identical. Identical values can stand only once.

System: mouse eye
Assay: Intraocular pressure (TonoLab) in mice after injection of ethacrynic acid, with or without healon, into the episcleral vein
Type: in vivo
Description: Basline intraocular pressures were measured in both eyes of the mouse using a TonoLab device. A piece of a latex glove was placed over the equator of the mouse eye. Initially, a glass microcannula was used to inject either (a) a solution of ethacrynic acid alone or (b) saline into the episcleral vein at the limbus of the right eye of each mouse. The solution or saline was injected until blanching was observed 360 degrees around the limbus. The piece of latex was then removed from the eye. Intraocular pressures were then measured daily and then weekly in both eyes of all mice. The ethacrynic acid injection alone produced its most profound effect at day 2; however, some effect was maintained until day 7. The results of the above protocol are provided in Table 1, and also shown in FIG. 4, where ethacrynic acid is noted as ECA (squares), saline control is BSS (triangles), and non-treated control is control (diamonds).
Next, ethacrynic acid was combined with healon in a 3:1 ratio. Again, a glass microcannula was used to inject either the ethacrynic acid/healon solution or BSS solution as the control. The ethacrynic acid/healon solution produced its most profound effect at 2 weeks but lasted 3 weeks. The results are provided in Table 2 and also shown in FIG. 3, where ethacrynic acid/healon is designated with squares, BSS as diamonds, and non injected controls as triangles.

[1] = ethacrynic acid injection alone, episcleral vein, mouse

SMILES: C=C(CC)C(=O)c1ccc(OCC(=O)O)c(Cl)c1Cl [ECA, [2,3-dichloro-4-(2-methylene-1-oxobutyl)phenoxy]acetic acid]
- Reduction of intraocular pressure (IOP) versus control (FIG. 5): reduces intraocular pressure (IOP) greater than control
- Animal status (mouse ECA6) (Table 1, ethacrynic acid alone, 1 wk): dead
- Intraocular pressure, OD, individual mouse (Table 2, ethacrynic acid combined with healon 3:1, episcleral vein injection, 1 day): 14 and 13 (2×) and 9 (2×)
- Avg. intraocular pressure, OD (Table 2, ethacrynic acid combined with healon 3:1, episcleral vein injection, 1 day, group avg (0 hr base avg 16.6)): 12.25
- Intraocular pressure, OD, individual mouse (Table 2, ethacrynic acid combined with healon 3:1, episcleral vein injection, 2 day): 12 (2×) and 19 (2×) and 22 and 16
- Avg. intraocular pressure, OD (Table 2, ethacrynic acid combined with healon 3:1, episcleral vein injection, 2 day, group avg): 16.8
- Intraocular pressure, OD, individual mouse (Table 2, ethacrynic acid combined with healon 3:1, episcleral vein injection, 5 day): 13 and 8 and 17 and 14 and 16 and 10
- Avg. intraocular pressure, OD (Table 2, ethacrynic acid combined with healon 3:1, episcleral vein injection, 5 day, group avg): 13.6
- Intraocular pressure, OD, individual mouse (Table 2, ethacrynic acid combined with healon 3:1, episcleral vein injection, 7 day): 10 (3×) and 9 and 7 and 20
- Avg. intraocular pressure, OD (Table 2, ethacrynic acid combined with healon 3:1, episcleral vein injection, 7 day, group avg): 11.2
- Intraocular pressure, OD, individual mouse (Table 2, ethacrynic acid combined with healon 3:1, episcleral vein injection, 14 day): 16 and 12 and 14 and 18 (2×)
- Avg. intraocular pressure, OD (Table 2, ethacrynic acid combined with healon 3:1, episcleral vein injection, 14 day, group avg): 15
- Intraocular pressure, OD, individual mouse (Table 2, ethacrynic acid combined with healon 3:1, episcleral vein injection, 21 day): 16 and 7 and 14 (2×) and 8
- Avg. intraocular pressure, OD (Table 2, ethacrynic acid combined with healon 3:1, episcleral vein injection, 21 day, group avg): 12.75
- Intraocular pressure, OD, individual mouse (Table 2, ethacrynic acid combined with healon 3:1, episcleral vein injection, 35 day): 11 and 8 and 15 and 17 and 14
- Avg. intraocular pressure, OD (Table 2, ethacrynic acid combined with healon 3:1, episcleral vein injection, 35 day, group avg): 12.75
- Intraocular pressure, OD, individual mouse (Table 2, ethacrynic acid combined with healon 3:1, episcleral vein injection, 42 day): 15 and 12 (2×) and 8 and 11
- Avg. intraocular pressure, OD (Table 2, ethacrynic acid combined with healon 3:1, episcleral vein injection, 42 day, group avg): 14.11
- Intraocular pressure, OD, individual mouse (Table 2, ethacrynic acid combined with healon 3:1, episcleral vein injection, 56 day): 13 and 10 (2×) and 7 and 17
- Avg. intraocular pressure, OD (Table 2, ethacrynic acid combined with healon 3:1, episcleral vein injection, 56 day, group avg): 13.47
- Intraocular pressure, OD, individual mouse (Table 2, ethacrynic acid combined with healon 3:1, episcleral vein injection, 64 day): 16 and 12 and 9 and 15 and 14
- Avg. intraocular pressure, OD (Table 2, ethacrynic acid combined with healon 3:1, episcleral vein injection, 64 day, group avg): 13.83
- Intraocular pressure, OD, individual mouse (Table 2, ethacrynic acid combined with healon 3:1, episcleral vein injection, 74 day (first 74 day column pair)): 19 and 14 and 17 and 18
- Avg. intraocular pressure, OD (Table 2, ethacrynic acid combined with healon 3:1, episcleral vein injection, 74 day (first 74 day column pair), group avg): 17
- Intraocular pressure, OD, individual mouse (Table 2, ethacrynic acid combined with healon 3:1, episcleral vein injection, 74 day (second 74 day column pair)): 17 and 11 and 16 (2×)
- Avg. intraocular pressure, OD (Table 2, ethacrynic acid combined with healon 3:1, episcleral vein injection, 74 day (second 74 day column pair), group avg): 19
- Animal status (mouse ECA6) (Table 2, 14 day): dead
- Intraocular pressure, OD, individual mouse (ethacrynic acid alone, episcleral vein injection right eye, 1 wk): 16 and 12 and 14 and 18
- Avg. intraocular pressure, OD (ethacrynic acid alone, episcleral vein injection right eye, 1 wk, group avg (0 hr base avg 16.6)): 15
- Intraocular pressure, OD, individual mouse (ethacrynic acid alone, episcleral vein injection right eye, 1 day): 14 and 13 (2×) and 9
- Avg. intraocular pressure, OD (ethacrynic acid alone, episcleral vein injection right eye, 1 day, group avg (0 hr base avg 16.6)): 12.25
- Intraocular pressure, OD, individual mouse (ethacrynic acid alone, episcleral vein injection right eye, 2 day): 12 (2×) and 19 (2×) and 22
- Avg. intraocular pressure, OD (ethacrynic acid alone, episcleral vein injection right eye, 2 day, group avg (0 hr base avg 16.6)): 16.8
- Intraocular pressure, OD, individual mouse (ethacrynic acid alone, episcleral vein injection right eye, 5 day): 13 and 8 and 17 and 14 and 16
- Avg. intraocular pressure, OD (ethacrynic acid alone, episcleral vein injection right eye, 5 day, group avg (0 hr base avg 16.6)): 13.6
- Intraocular pressure, OD, individual mouse (ethacrynic acid alone, episcleral vein injection right eye, 6 day): 10 (2×) and 9 and 7 and 20
- Avg. intraocular pressure, OD (ethacrynic acid alone, episcleral vein injection right eye, 6 day, group avg (0 hr base avg 16.6)): 11.2
- Effect on intraocular pressure maintained until [1]: 7 days
- Time of most profound effect on intraocular pressure [1]: 2 days
